Assay results taken from BindingDB's records for doi:10.1074/jbc.M113.490441 (University of Calgary, 2013).

Molecular target: T1, Histidine-binding periplasmic protein [1-238] (Escherichia coli (strain 55989 / EAEC), UniProt P0AEU0)
T1 construct: 1-238
T1 sequence (P0AEU0 whole entry): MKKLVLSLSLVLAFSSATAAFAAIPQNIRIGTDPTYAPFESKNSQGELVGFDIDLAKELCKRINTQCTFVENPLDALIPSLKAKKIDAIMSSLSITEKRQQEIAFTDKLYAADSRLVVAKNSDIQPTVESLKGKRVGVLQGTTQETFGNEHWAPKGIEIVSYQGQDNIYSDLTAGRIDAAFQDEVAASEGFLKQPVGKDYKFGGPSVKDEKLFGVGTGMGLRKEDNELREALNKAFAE
Assay: Isothermal Titration Calorimetry (ITC)
Conditions: pH 7; 30 °C
Protocol: All ITC experiments were performed using a Microcal VP-ITC microcalorimeter (GE Healthcare). All samples were prepared in a buffer containing 20 mM HEPES (pH 7.0) and 100 mM NaCl. The syringe was filled with 0.5 mM histidine that was injected into the ITC cell containing 20 μM protein (D1, D2, or HisJ) solution at 30 °C.

N[C@@H](Cc1c[nH]cn1)C(=O)O [L-2-Amino-3-(4-imidazolyl)propionic acid] gave a Kd of 114 nM.
